Assay results as given in PubChem BioAssay (NCI).
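Following 48 hours of exposure in 96-well plates, responses at five concentrations were used to interpolate endpoints linearly. The concentration for 50% growth inhibition is given as GI50. At the TGI there is no net growth.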

Tests used:
Assay in all cases: inhibition of tumour cell growth, NCI panel, 48 h
OVCAR-5 ovarian = test system: OVCAR-5 ovarian
SN12C renal = test system: SN12C renal
NCI-H23 lung = test system: NCI-H23 lung
A549 NSCLC = test system: A549 NSCLC
IGROV1 ovarian = test system: IGROV1 ovarian
COLO 205 colon = test system: COLO 205 colon
U251 CNS = test system: U251 CNS
SR leukemia = test system: SR leukemia
RXF 393 renal = test system: RXF 393 renal
HT29 colon = test system: HT29 colon
BT-549 breast = test system: BT-549 breast
M14 melanoma = test system: M14 melanoma
MALME-3M melanoma = test system: MALME-3M melanoma
OVCAR-4 ovarian = test system: OVCAR-4 ovarian
RPMI-8226 leukemia = test system: RPMI-8226 leukemia
UACC-62 melanoma = test system: UACC-62 melanoma
HCT-116 colon = test system: HCT-116 colon
SNB-75 CNS = test system: SNB-75 CNS
SK-MEL-28 melanoma = test system: SK-MEL-28 melanoma
DU-145 prostate = test system: DU-145 prostate
LOX IMVI melanoma = test system: LOX IMVI melanoma
NCI/ADR-RES ovarian = test system: NCI/ADR-RES ovarian
HOP-92 NSCLC = test system: HOP-92 NSCLC
CAKI-1 renal = test system: CAKI-1 renal
CCRF-CEM leukemia = test system: CCRF-CEM leukemia
SF-539 CNS = test system: SF-539 CNS
SK-OV-3 ovarian = test system: SK-OV-3 ovarian
786-0 renal = test system: 786-0 renal
HCC-2998 colon = test system: HCC-2998 colon
K-562 leukemia = test system: K-562 leukemia
SF-295 CNS = test system: SF-295 CNS
SK-MEL-5 melanoma = test system: SK-MEL-5 melanoma
NCI-H522 lung = test system: NCI-H522 lung
NCI-H460 lung = test system: NCI-H460 lung
A498 renal = test system: A498 renal
MDA-MB-435 = test system: MDA-MB-435
PC-3 prostate = test system: PC-3 prostate
KM12 colon = test system: KM12 colon
SW-620 colon = test system: SW-620 colon
SF-268 CNS = test system: SF-268 CNS
UO-31 renal = test system: UO-31 renal
NCI-H226 lung = test system: NCI-H226 lung
HCT-15 colon = test system: HCT-15 colon
MDA-MB-231 breast = test system: MDA-MB-231 breast
T-47D breast = test system: T-47D breast
UACC-257 melanoma = test system: UACC-257 melanoma
HOP-62 NSCLC = test system: HOP-62 NSCLC
SNB-19 CNS = test system: SNB-19 CNS
ACHN renal = test system: ACHN renal
SK-MEL-2 melanoma = test system: SK-MEL-2 melanoma
MOLT-4 leukemia = test system: MOLT-4 leukemia
OVCAR-8 ovarian = test system: OVCAR-8 ovarian
MCF7 breast = test system: MCF7 breast
HS 578T breast = test system: HS 578T breast
TK-10 renal = test system: TK-10 renal
OVCAR-3 ovarian = test system: OVCAR-3 ovarian
HL-60(TB) leukemia = test system: HL-60(TB) leukemia
EKVX NSCLC = test system: EKVX NSCLC

CC(C)(C)c1ccc(S(=O)(=O)N[C@H]2CC[C@H]3[C@@H]4CCc5cc(OS(=O)(=O)O)ccc5[C@H]4CC[C@]23C)cc1 gave a GI50 (OVCAR-5 ovarian) of 1.88 µM, a TGI (OVCAR-5 ovarian) of 3.63 µM and a GI50 (SN12C renal) of 1.81 µM. For the same compound, the TGI (SN12C renal) was 3.58 µM, the GI50 (NCI-H23 lung) was 2.6 µM and the TGI (NCI-H23 lung) was 9.15 µM. The GI50 (A549 NSCLC) was 2.83 µM, the TGI (A549 NSCLC) was 10.2 µM and the GI50 (IGROV1 ovarian) was 3.63 µM. For the same compound, the TGI (IGROV1 ovarian) was 10.9 µM, the GI50 (COLO 205 colon) was 1.83 µM and the TGI (COLO 205 colon) was 3.29 µM. The GI50 (U251 CNS) was 1.68 µM, the TGI (U251 CNS) was 3.34 µM and the GI50 (SR leukemia) was 2.45 µM. It also gave a TGI (SR leukemia) of 7.02 µM, a GI50 (RXF 393 renal) of 1.6 µM and a TGI (RXF 393 renal) of 3.49 µM. It also gave a GI50 (HT29 colon) of 2.19 µM, a TGI (HT29 colon) of 4.57 µM and a GI50 (BT-549 breast) of 2.1 µM. For the same compound, the TGI (BT-549 breast) was 4.2 µM, the GI50 (M14 melanoma) was 2.07 µM and the TGI (M14 melanoma) was 4.31 µM. It also gave a GI50 (MALME-3M melanoma) of 2.49 µM, a TGI (MALME-3M melanoma) of 6.05 µM and a GI50 (OVCAR-4 ovarian) of 2.49 µM. It also gave a TGI (OVCAR-4 ovarian) of 9.92 µM, a GI50 (RPMI-8226 leukemia) of 2.55 µM and a TGI (RPMI-8226 leukemia) of 7.37 µM. For the same compound, the GI50 (UACC-62 melanoma) was 1.81 µM, the TGI (UACC-62 melanoma) was 3.72 µM and the GI50 (HCT-116 colon) was 1.79 µM. For the same compound, the TGI (HCT-116 colon) was 3.35 µM, the GI50 (SNB-75 CNS) was 2.03 µM and the TGI (SNB-75 CNS) was 6.11 µM. The GI50 (SK-MEL-28 melanoma) was 1.8 µM, the TGI (SK-MEL-28 melanoma) was 3.38 µM and the GI50 (DU-145 prostate) was 5.72 µM. It also gave a TGI (DU-145 prostate) of 18 µM, a GI50 (LOX IMVI melanoma) of 1.7 µM and a TGI (LOX IMVI melanoma) of 3.11 µM. It also gave a GI50 (NCI/ADR-RES ovarian) of 2.39 µM, a TGI (NCI/ADR-RES ovarian) of 7.03 µM and a GI50 (HOP-92 NSCLC) of 2.11 µM. For the same compound, the TGI (HOP-92 NSCLC) was 5.31 µM, the GI50 (CAKI-1 renal) was 2.77 µM and the TGI (CAKI-1 renal) was 8.89 µM. The GI50 (CCRF-CEM leukemia) was 2.88 µM, the TGI (CCRF-CEM leukemia) was 9.25 µM and the GI50 (SF-539 CNS) was 1.8 µM. It also gave a TGI (SF-539 CNS) of 3.34 µM, a GI50 (SK-OV-3 ovarian) of 2.92 µM and a TGI (SK-OV-3 ovarian) of 8.54 µM. It also gave a GI50 (786-0 renal) of 2.5 µM, a TGI (786-0 renal) of 6.3 µM and a GI50 (HCC-2998 colon) of 4.09 µM. The TGI (HCC-2998 colon) was 13.1 µM, the GI50 (K-562 leukemia) was 3.22 µM and the TGI (K-562 leukemia) was 13.6 µM. It also gave a GI50 (SF-295 CNS) of 2.51 µM, a TGI (SF-295 CNS) of 6.76 µM and a GI50 (SK-MEL-5 melanoma) of 1.64 µM. The TGI (SK-MEL-5 melanoma) was 2.99 µM, the GI50 (NCI-H522 lung) was 1.93 µM and the TGI (NCI-H522 lung) was 5.15 µM. It also gave a GI50 (NCI-H460 lung) of 2.19 µM, a TGI (NCI-H460 lung) of 4.79 µM and a GI50 (A498 renal) of 1.5 µM. For the same compound, the TGI (A498 renal) was 3.04 µM, the GI50 (MDA-MB-435) was 2.32 µM and the TGI (MDA-MB-435) was 5.9 µM. It also gave a GI50 (PC-3 prostate) of 4.19 µM, a TGI (PC-3 prostate) of 17.5 µM and a GI50 (KM12 colon) of 2.08 µM. For the same compound, the TGI (KM12 colon) was 4.01 µM, the GI50 (SW-620 colon) was 3.37 µM and the TGI (SW-620 colon) was 12.5 µM. It also gave a GI50 (SF-268 CNS) of 3.14 µM, a TGI (SF-268 CNS) of 11.5 µM and a GI50 (UO-31 renal) of 1.8 µM. The TGI (UO-31 renal) was 4.4 µM, the GI50 (NCI-H226 lung) was 1.59 µM and the TGI (NCI-H226 lung) was 3.06 µM. The GI50 (HCT-15 colon) was 1.79 µM, the TGI (HCT-15 colon) was 3.59 µM and the GI50 (MDA-MB-231 breast) was 1.94 µM. It also gave a TGI (MDA-MB-231 breast) of 4.26 µM, a GI50 (T-47D breast) of 2.82 µM and a TGI (T-47D breast) of 9.96 µM. It also gave a GI50 (UACC-257 melanoma) of 2.75 µM, a TGI (UACC-257 melanoma) of 9.11 µM and a GI50 (HOP-62 NSCLC) of 2.87 µM. For the same compound, the TGI (HOP-62 NSCLC) was 7.81 µM, the GI50 (SNB-19 CNS) was 3.49 µM and the TGI (SNB-19 CNS) was 13.8 µM. It also gave a GI50 (ACHN renal) of 2.01 µM, a TGI (ACHN renal) of 4.24 µM and a GI50 (SK-MEL-2 melanoma) of 2.46 µM. For the same compound, the TGI (SK-MEL-2 melanoma) was 5.86 µM, the GI50 (MOLT-4 leukemia) was 2.65 µM and the TGI (MOLT-4 leukemia) was 9.55 µM. For the same compound, the GI50 (OVCAR-8 ovarian) was 2.79 µM, the TGI (OVCAR-8 ovarian) was 8.46 µM and the GI50 (MCF7 breast) was 2.38 µM. The TGI (MCF7 breast) was 5.9 µM, the GI50 (HS 578T breast) was 2.69 µM and the TGI (HS 578T breast) was 7.27 µM. It also gave a GI50 (TK-10 renal) of 3.69 µM and a TGI (TK-10 renal) of 12.4 µM.

For c1ccc(CSc2nc(N3CCOCC3)c3cn[nH]c3n2)cc1, the TGI (OVCAR-5 ovarian) was > 100 µM, the TGI (SN12C renal) was 37.7 µM and the TGI (NCI-H23 lung) was > 100 µM. For the same compound, the TGI (A549 NSCLC) was > 100 µM, the TGI (IGROV1 ovarian) was 31.7 µM and the TGI (COLO 205 colon) was 30.4 µM. The TGI (U251 CNS) was 63.2 µM, the TGI (SR leukemia) was 63.6 µM and the TGI (RXF 393 renal) was 32.9 µM. The TGI (HT29 colon) was > 100 µM, the TGI (BT-549 breast) was 40.3 µM and the TGI (M14 melanoma) was 49 µM. For the same compound, the TGI (MALME-3M melanoma) was 31.8 µM, the TGI (OVCAR-4 ovarian) was > 100 µM and the TGI (RPMI-8226 leukemia) was 35.2 µM. The TGI (UACC-62 melanoma) was 30.3 µM, the TGI (HCT-116 colon) was > 100 µM and the TGI (SNB-75 CNS) was > 100 µM. For the same compound, the TGI (SK-MEL-28 melanoma) was 43.4 µM, the TGI (DU-145 prostate) was > 100 µM and the TGI (LOX IMVI melanoma) was 44.1 µM. It also gave a TGI (NCI/ADR-RES ovarian) of 55.6 µM, a TGI (CAKI-1 renal) of 57.5 µM and a TGI (CCRF-CEM leukemia) of 36 µM. The TGI (SF-539 CNS) was 56.4 µM, the TGI (SK-OV-3 ovarian) was > 100 µM and the TGI (786-0 renal) was > 100 µM. The TGI (OVCAR-3 ovarian) was > 100 µM, the TGI (HCC-2998 colon) was 69.2 µM and the TGI (K-562 leukemia) was > 100 µM. For the same compound, the TGI (HL-60(TB) leukemia) was > 100 µM, the TGI (SF-295 CNS) was 78 µM and the TGI (SK-MEL-5 melanoma) was 30.9 µM. It also gave a TGI (NCI-H522 lung) of 33.1 µM, a TGI (EKVX NSCLC) of 48 µM and a TGI (NCI-H460 lung) of 59 µM. For the same compound, the TGI (A498 renal) was 26.1 µM, the TGI (MDA-MB-435) was 40 µM and the TGI (PC-3 prostate) was 38.2 µM. The TGI (KM12 colon) was 38.5 µM, the TGI (SW-620 colon) was 64.8 µM and the TGI (SF-268 CNS) was 58.8 µM. For the same compound, the TGI (UO-31 renal) was 38.4 µM, the TGI (NCI-H226 lung) was 73.1 µM and the TGI (HCT-15 colon) was > 100 µM. The TGI (MDA-MB-231 breast) was 39.4 µM, the TGI (T-47D breast) was 68.5 µM and the TGI (UACC-257 melanoma) was 29.9 µM. The TGI (HOP-62 NSCLC) was > 100 µM, the TGI (SNB-19 CNS) was 87.4 µM and the TGI (ACHN renal) was 90.9 µM. For the same compound, the TGI (SK-MEL-2 melanoma) was 34 µM, the TGI (MOLT-4 leukemia) was > 100 µM and the TGI (OVCAR-8 ovarian) was 89.1 µM. For the same compound, the TGI (MCF7 breast) was > 100 µM, the TGI (HS 578T breast) was 39.3 µM and the TGI (TK-10 renal) was 51.6 µM.
